Test results from patent US11339130B1 (Blade Therapeutics, Inc., priority 2016, dated 2022).
pIC50: −log10 of the molar value.

How the values were obtained:
Type in all cases: biochemical
[1] = target: T1, Human Calpain 9/NS1 (Homo sapiens, UniProt O14815); test: Calpain inhibition continuous fluorescence (FRET) assay, Human Calpain 9/NS1; conditions: Column C; read-out: Human Calpain 9/NS1 IC50
T1 sequence (O14815 1-690): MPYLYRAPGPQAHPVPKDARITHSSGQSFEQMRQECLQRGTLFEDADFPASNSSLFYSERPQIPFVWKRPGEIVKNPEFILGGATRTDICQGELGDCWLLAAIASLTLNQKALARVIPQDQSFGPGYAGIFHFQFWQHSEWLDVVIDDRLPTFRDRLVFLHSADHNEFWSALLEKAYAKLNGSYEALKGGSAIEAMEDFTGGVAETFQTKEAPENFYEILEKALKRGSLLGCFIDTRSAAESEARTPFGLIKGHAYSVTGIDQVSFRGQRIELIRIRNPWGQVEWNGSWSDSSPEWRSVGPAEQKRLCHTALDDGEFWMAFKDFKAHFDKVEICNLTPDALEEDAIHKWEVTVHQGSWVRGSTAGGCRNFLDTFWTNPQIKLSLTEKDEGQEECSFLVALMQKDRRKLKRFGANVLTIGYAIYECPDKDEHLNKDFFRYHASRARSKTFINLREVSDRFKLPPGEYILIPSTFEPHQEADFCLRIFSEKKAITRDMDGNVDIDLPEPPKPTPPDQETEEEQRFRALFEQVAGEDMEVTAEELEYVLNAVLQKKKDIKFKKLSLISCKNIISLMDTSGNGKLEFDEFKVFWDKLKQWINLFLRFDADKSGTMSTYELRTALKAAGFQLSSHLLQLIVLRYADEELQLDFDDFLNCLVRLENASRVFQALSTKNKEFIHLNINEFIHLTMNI
T1 sequence (P04632 1-268 partner): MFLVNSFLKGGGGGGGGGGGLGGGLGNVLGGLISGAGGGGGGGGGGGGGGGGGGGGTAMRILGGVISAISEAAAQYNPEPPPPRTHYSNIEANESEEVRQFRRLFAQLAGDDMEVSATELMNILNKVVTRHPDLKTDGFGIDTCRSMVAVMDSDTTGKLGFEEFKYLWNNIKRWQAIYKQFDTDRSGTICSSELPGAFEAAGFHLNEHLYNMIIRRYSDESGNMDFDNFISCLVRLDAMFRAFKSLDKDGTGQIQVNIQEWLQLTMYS
Description: (§1) Calpain 1, 2, and 9 activity and inhibition thereof was assessed by means of a continuous fluorescence assay. The SensoLyte 520 Calpain substrate (Anaspec Inc) was optimized for detecting calpain activity. This substrate contains an internally quenched 5-FAM/QXL™ 520 FRET pair. Calpains 1, 2, and 9 cleave the FRET substrate into two separate fragments resulting in an increase of 5-FAM fluorescence that is proportional to calpain activity
(§2) Assays were typically setup in black 384-well plates using automated liquid handling as follows. Calpain assay base buffer typically contains 50 mM Tris, pH 7.5, 100 mM NaCl and 1 mM DTT. Inhibitors were serially diluted in DMSO and used to setup 2× mixtures with calpains in the aforementioned buffer. After incubation at ambient temperature (25C), the reaction was initiated by adding a 2× mix of the fluorescent peptide substrate and CaCl2) (required for in-situ calpain activation) in the same buffer. Reaction progress curve data were typically collected for 10 min using excitation/emission wavelengths of 490 nm/520 nm on SpectraMax i3× or the FLIPR-Tetra plate readers (Molecular Devices Inc). Reaction rates were calculated from progress curve slopes typically over 1-5 min. Dose response curves (rate vs. log inhibitor concentration) were typically fit to a 4-parameter logistic function to extract IC50 values.

[2] = target: T2, Human Calpain 1/NS1 (Homo sapiens, UniProt P07384); test: Calpain inhibition continuous fluorescence (FRET) assay, Human Calpain 1/NS1; conditions: Column A; read-out: Human Calpain 1/NS1 IC50
T2 sequence (P07384 1-714): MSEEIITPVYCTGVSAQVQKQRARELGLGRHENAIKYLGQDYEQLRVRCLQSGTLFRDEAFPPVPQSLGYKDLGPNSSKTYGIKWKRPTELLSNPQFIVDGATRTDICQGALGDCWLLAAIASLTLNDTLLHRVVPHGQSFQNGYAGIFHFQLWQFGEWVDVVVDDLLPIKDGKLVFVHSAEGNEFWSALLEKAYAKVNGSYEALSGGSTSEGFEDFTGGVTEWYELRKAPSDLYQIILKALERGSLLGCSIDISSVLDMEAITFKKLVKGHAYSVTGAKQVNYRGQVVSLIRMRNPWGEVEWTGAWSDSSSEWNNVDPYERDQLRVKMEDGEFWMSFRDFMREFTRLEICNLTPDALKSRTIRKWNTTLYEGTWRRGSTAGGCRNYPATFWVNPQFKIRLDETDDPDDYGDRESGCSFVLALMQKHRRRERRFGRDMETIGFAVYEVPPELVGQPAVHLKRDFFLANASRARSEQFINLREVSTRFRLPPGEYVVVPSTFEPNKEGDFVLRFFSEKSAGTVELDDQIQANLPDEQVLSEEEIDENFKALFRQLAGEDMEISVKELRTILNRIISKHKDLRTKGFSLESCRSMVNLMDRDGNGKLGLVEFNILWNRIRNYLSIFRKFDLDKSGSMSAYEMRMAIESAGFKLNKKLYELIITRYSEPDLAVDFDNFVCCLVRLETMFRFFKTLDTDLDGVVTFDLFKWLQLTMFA
T2 sequence (P04632 1-268 partner): T1 sequence (P04632 1-268 partner)
Description: as §1, §2

[3] = target: T3, Human Calpain 2/NS1 (Homo sapiens, UniProt P17655); test: Calpain inhibition continuous fluorescence (FRET) assay, Human Calpain 2/NS1; conditions: Column B; read-out: Human Calpain 2/NS1 IC50
T3 sequence (P17655 1-700): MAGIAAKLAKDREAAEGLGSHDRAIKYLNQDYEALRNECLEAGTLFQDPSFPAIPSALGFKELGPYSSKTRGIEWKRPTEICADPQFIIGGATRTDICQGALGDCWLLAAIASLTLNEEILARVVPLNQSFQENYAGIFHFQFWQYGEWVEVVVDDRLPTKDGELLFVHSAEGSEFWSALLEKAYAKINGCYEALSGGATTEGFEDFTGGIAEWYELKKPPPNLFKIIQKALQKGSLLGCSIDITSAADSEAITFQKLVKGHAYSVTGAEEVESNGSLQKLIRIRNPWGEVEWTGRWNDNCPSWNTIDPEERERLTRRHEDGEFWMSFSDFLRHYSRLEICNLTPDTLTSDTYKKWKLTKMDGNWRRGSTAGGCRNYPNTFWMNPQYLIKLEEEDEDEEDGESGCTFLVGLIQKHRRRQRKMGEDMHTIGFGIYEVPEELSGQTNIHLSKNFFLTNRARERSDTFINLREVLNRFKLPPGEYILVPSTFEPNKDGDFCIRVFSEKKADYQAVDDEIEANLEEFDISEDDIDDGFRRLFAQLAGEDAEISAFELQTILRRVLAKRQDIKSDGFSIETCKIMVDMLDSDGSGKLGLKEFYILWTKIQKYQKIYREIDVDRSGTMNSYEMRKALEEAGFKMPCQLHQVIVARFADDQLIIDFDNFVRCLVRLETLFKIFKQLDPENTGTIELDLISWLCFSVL
T3 sequence (P04632 1-268 partner): T1 sequence (P04632 1-268 partner)
Description: as §1, §2

Structure (SMILES) | pIC50 [1] | pIC50 [2] | pIC50 [3]
O=C(NC1CC1)C(=O)[C@H](Cc1ccccc1)NC(=O)c1cncn1-c1ccc(-c2ccccc2)nn1 [Compound 201, (S)—N-(4-(cyclopropylamino)-3,4-dioxo-1-phenylbutan-2-yl)-1-(6-phenylpyridazin-3-yl)-1H-imidazole-5-carboxamide] | 5.00 to 5.52 | > 5.52 | > 5.52
O=C(NC1CC1)C(=O)[C@H](Cc1ccccc1)NC(=O)c1cncn1-c1ccc(-c2ncco2)cn1 [Compound 89, (S)—N-(4-(cyclopropylamino)-3,4-dioxo-1-phenylbutan-2-yl)-1-(5-(oxazol-2-yl)pyridin-2-yl)-1H-imidazole-5-carboxamide] | 5.00 to 5.52 | > 5.52 | > 5.52
NC(=O)C(=O)[C@H](Cc1ccccc1)NC(=O)c1c(Cl)ncn1-c1ccccc1 [Compound 291, (S)—N-(4-amino-3,4-dioxo-1-phenylbutan-2-yl)-4-chloro-1-phenyl-1H-imidazole-5-carboxamide] | > 5.52 | > 5.52 | > 5.52
O=C(NC1CC1)C(=O)[C@H](Cc1ccccc1)NC(=O)c1cncn1-c1ncc(-c2ccccc2)cn1 [Compound 76, (S)—N-(4-(cyclopropylamino)-3,4-dioxo-1-phenylbutan-2-yl)-1-(5-phenylpyrimidin-2-yl)-1H-imidazole-5-carboxamide] | 5.00 to 5.52 | > 5.52 | > 5.52
Cc1cc(C(=O)N[C@@H](Cc2ccccc2)C(=O)C(N)=O)nn1-c1nccs1 [Compound 219, (S)—N-(4-amino-3,4-dioxo-1-phenylbutan-2-yl)-5-methyl-1-(thiazol-2-yl)-1H-pyrazole-3-carboxamide] | 5.00 to 5.52 | 5.00 to 5.52 | 5.00 to 5.52
Cc1cc(C(=O)N[C@@H](Cc2ccccc2)C(=O)C(=O)NC2CC2)n(-c2ncccc2C)n1 [Compound 67, (S)—N-(4-(cyclopropylamino)-3,4-dioxo-1-phenylbutan-2-yl)-3-methyl-1-(3-methylpyridin-2-yl)-1H-pyrazole-5-carboxamide] | < 5.00 | < 5.00 | < 5.00

More lines, now with the values ahead:

pIC50 [1] | pIC50 [2] | pIC50 [3] | Structure (SMILES)
> 5.52 | > 5.52 | > 5.52 | Cc1noc(-n2cc3ccccc3n2)c1C(=O)N[C@@H](Cc1ccccc1)C(=O)C(N)=O [Compound 139, (S)—N-(4-amino-3,4-dioxo-1-phenylbutan-2-yl)-5-(2H-indazol-2-yl)-3-methylisoxazole-4-carboxamide]
> 5.52 | > 5.52 | > 5.52 | Cc1nc(-c2ccccc2)c(C(=O)N[C@@H](Cc2ccccc2)C(=O)C(=O)NC2CC2)s1 [Compound 124, (S)—N-(4-(cyclopropylamino)-3,4-dioxo-1-phenylbutan-2-yl)-2-methyl-4-phenylthiazole-5-carboxamide]
> 5.52 | > 5.52 | > 5.52 | Cc1cc(C(=O)N[C@@H](Cc2ccccc2)C(=O)C(N)=O)n(-c2cccc3ccccc23)n1 [Compound 38, (S)—N-(4-amino-3,4-dioxo-1-phenylbutan-2-yl)-3-methyl-1-(naphthalen-1-yl)-1H-pyrazole-5-carboxamide]
> 5.52 | > 5.52 | > 5.52 | NC(=O)C(=O)[C@H](Cc1ccccc1)NC(=O)c1ncoc1-c1ccccc1 [Compound 148, (S)—N-(4-amino-3,4-dioxo-1-phenylbutan-2-yl)-5-phenyloxazole-4-carboxamide]
> 5.52 | > 5.52 | > 5.52 | Cc1noc(-c2ccccc2)c1C(=O)N[C@@H](CCc1ccccc1)C(=O)C(N)=O [Compound 205, (S)—N-(1-amino-1,2-dioxo-5-phenylpentan-3-yl)-3-methyl-5-phenylisoxazole-4-carboxamide]
> 5.52 | < 5.00 | < 5.00 | Cc1cc(C(=O)N[C@@H](Cc2ccccc2)C(=O)C(N)=O)nn1-c1nc2ccccc2o1 [Compound 256, (S)—N-(4-amino-3,4-dioxo-1-phenylbutan-2-yl)-1-(benzo[d]oxazol-2-yl)-5-methyl-1H-pyrazole-3-carboxamide]
